For one test, the system named is human clinical trials. The conditions noted are these: ref [22]; cited from earlier work. From the text: (§1) ATP-competitive small molecule inhibitors of the type II PAKs could be useful as cancer therapeutics. […] Sunitinib (SU11248) is a potent ATP-competitive multi-kinase inhibitor that is indicated for treatment of renal cell carcinoma, imatinib-resistant gastrointestinal stromal tumors, advanced pancreatic neuroendocrine tumors and other tumor types [ ...

Another test deals with mouse models of cancer. As to conditions: ref [22]; cited from earlier work.
Excerpt: as §1

Test [1] deals with type II PAKs and also PAK1. As to conditions: each of the type II PAKs and also PAK1; ref [22]; cited from earlier work.
Excerpt: as §1

The subject of a further test is PAK kinases. As to conditions: ref [41], cited from earlier work. The source says: (§2) Therefore understanding how sunitinib binds to the type II PAKs may represent a starting point for future small molecule drug discovery. There are currently 6 co-crystal structures of protein kinases in complex with sunitinib deposited in the PDB. These kinases are of VEGFR (4AGD), KIT (3G0E), KIT-D816H mutation (3G0F), ITK (3MIY), CDK2 (3TI1) and phosphorylase kin ...

A further test has as its target type II PAKs. The conditions noted are these: range over the family, ref [41], read-out: Ki (estimated range); cited from earlier work.
Excerpt: as §2

For test [2], the target named is T1, PAK6 catalytic domain (residues 383–674) (Homo sapiens, UniProt Q9NQU5).
T1 construct: recombinant PAK6 catalytic domain (residues 383–674) purified as described above; 6xHis (N, cleaved yes); made in house; host or cells: E. coli BL21(DE3)
Briefly: In vitro PAK6 kinase assay (trans-inhibition by peptides, MBP substrate, radioactive). The format is biochemical. As to the method:
Catalytic domain residues 383–674 of PAK6 (UniProt Q9NQU5) were amplified from cDNA (Open Biosystems) then subcloned into a modified pET-32 vector with an N-terminal 6xHis tag cleavable by TEV protease. A single colony of transformed E. coli BL21(DE3) was grown in Luria-Bertani (LB) medium at 37°C for 7 hours with kanamycin sulfate (100 µg/ml). Then the fresh culture was inoculated (1∶100) into in LB supplemented with kanamycin sulfate (100 µg/ml). Protein expression was induced at an A 600 of 0.4 by addition of 0.3 mM isopropyl-thio-galactopyranoside (IPTG) at 18°C for 14 hr. Cells were harvested and then resuspended in lysis buffer (50 mM HEPES pH 7.5, 500 mM NaCl, 0.5 mM TCEP, and 1 mM PMSF). Lysozyme and DNAse-I were added and the mixture was incubated on ice before three cycles of flash-freezing in a dry ice and ethanol mixture and thawing at 4°C. Following sonication and centrifugation, the supernatant was collected and loaded onto a nickel sepharose column equilibrated with 100 ml binding buffer (50 mM HEPES pH 7.5, 500 mM NaCl, 5 mM imidazole, 0.5 mM TCEP, 5% glycerol). Contaminating proteins were washed away with 200 ml wash buffer (50 mM HEPES pH 7.5, 500 mM NaCl, 30 mM imidazole, 0.5 mM TCEP, 5% glycerol). PAK6 catalytic domain was eluted with an imidazole step gradient and identified by SDS-PAGE. Overnight TEV cleavage was performed by adding TEV protease and dialyzing the mixture against size exclusion buffer (50 mM Tris pH 8, 250 mM NaCl, 5 mM TCEP). PAK6 catalytic domain was then reloaded onto the nickel sepharose column to remove remaining uncleaved protein. The sample then was loaded onto a Superdex 75 16/60 gel-filtration column equilibrated with size exclusion buffer.
Kinase activity was assessed using a radioactive assay with myelin basic protein (MBP) as substrate. […] Kinase assays were performed by adding 150 nM of PAK6, 2 µM of MBP as the substrate, 50 µM of cold-ATP and 0.1 µCi of hot [γ-^33P] ATP in Tris buffer (20 mM Tris-HCl pH 8.0, 0.15 M NaCl, 1 mM DTT and 10 mM MgCl2) for a total volume of 25 µl. […] Control peptide ([…]) was purchased from Anaspec and inhibition assays were performed using between 0.5 mM and 4.5 mM of peptide. The reaction was conducted at 30°C for 10 min and stopped by addition of 5X sample buffer and analyzed by SDS-PAGE. Gels were analyzed by exposure to phosphor storage screen (GE) followed by scanning using a Molecular Imager FX Pro Plus System (Bio-Rad) and quantification by optical densitometry Quantity One (Bio-Rad). Relative activities were compared to those measured for PAK6. Measurements were calculated from at least three independent experiments.

Where [3] appears, read: 150 nM PAK6, 2 µM MBP, 50 µM cold-ATP, [γ-33P] ATP, 20 mM Tris-HCl pH 8.0, 0.15 M NaCl, 1 mM DTT, 10 mM MgCl2, 30°C, 10 min, SDS-PAGE/phosphor storage screen, 3 independent experiments, tested wild-type 0.06-5.85 mM, P52L 1.8-5.85 mM, control 0.5-4.5 mM, read-out: IC50 (inhibition of PAK6 kinase activity).
Setting [4] is: 95% confidence interval of the IC50, 3 independent experiments, read-out: 95% confidence (of IC50).

Read-outs that look alike come from different tables or passages of the source. No end group written: not given here.

Usually Ki stands for the equilibrium dissociation constant of an inhibitor or competing ligand from its target. What is called IC50 is the concentration needed to halve the response being measured.

T1 sequence (Q9NQU5 383-674): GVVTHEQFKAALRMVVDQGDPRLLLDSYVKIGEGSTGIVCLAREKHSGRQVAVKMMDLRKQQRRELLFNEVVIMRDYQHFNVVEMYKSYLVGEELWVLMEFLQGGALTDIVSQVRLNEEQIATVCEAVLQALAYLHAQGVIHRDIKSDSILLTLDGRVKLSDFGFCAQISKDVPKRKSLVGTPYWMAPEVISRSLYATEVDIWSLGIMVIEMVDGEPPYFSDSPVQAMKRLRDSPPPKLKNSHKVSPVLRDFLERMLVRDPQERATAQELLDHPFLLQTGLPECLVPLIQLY

As for `Cc1nc(Nc2[nH]nc3c2CN(C(=O)N[C@H](CN(C)C)c2ccccc2)C3(C)C)c2sccc2n1` [PF-3758309], the “outcome in human clinical trials” value with human clinical trials is “failed in human clinical trials”. In addition, the “efficacy in mouse models of cancer” value with mouse models of cancer is “effective in mouse models of cancer”. Besides, the in vitro activity entry in test [1] is “displays in vitro activity against each of the type II PAKs and also PAK1”.
Consider `CCN(CC)CCNC(=O)c1c(C)[nH]c(/C=C2\C(=O)Nc3ccc(F)cc32)c1C` [Sunitinib], for which, in the test with PAK kinases, the “inhibition of the PAK kinases overall” value was “weak inhibitor”. Further, in the test with PAK kinases (type II vs type I PAK family members), the selectivity result was “selectivity for type II over type I PAK family members”. Also, the Ki on type II PAKs was 0.5 to 7 µM.
Take APRTPGGRR [control peptide]: the half-maximal inhibitory concentration (IC50) in test [2] was 3000 to 15000 µM.
For the compound RRPKLVVDP [P52L mutant peptide], the 50% inhibitory concentration (IC50) was 4200 µM in test [2] (setting [3]) and 3800 to 4600 µM in test [2] (setting [4]).
As to RRPKPVVDP [N-terminal peptide], the values for the IC50 in test [2] (setting [3]) and in test [2] (setting [4]) were 600 µM and 510 to 710 µM, respectively.

(Values after paper PMC3810134, “Substrate and Inhibitor Specificity of the Type II p21-Activated Kinase, PAK6” (PLoS ONE, 2013).)
